Reference: patent publication US20040014808A1, “Novel derivatives of carnosic acid” (priority 2002, published 2004)

Assay: DPPH free-radical scavenging assay
Format: biochemical
Conditions: 300 μM DPPH in methanol, room temperature, 30 min, read at 517 nm, mean of 3 observations; for IC50: read-out: IC50 (μM), concentration of sample required to scavenge 50% DPPH free radicals
Procedure: DPPH Radical Scavenging Assay. The DPPH free radical scavenging assay is based on the abilities of compounds to quench stable DPPH free radicals (Lee, S. K.; Mbwambo, Z. H.; Chung, H. S.; Luyengi, L.; Gamez, E. J. C.; Mehta, R. G.; Kinghorn, A. D.; Pezzuto, J. M. Comb. Chem. High Throughput Screen. 1998, 1, 35-46). Reaction mixtures (200 μL) were prepared by combining multiple concentrations of test sample in methanol (10 μL) with DPPH (Aldrich, Milwaukee, Wis.) in methanol (190 μL). The final DPPH concentration was 300 μM. The reaction mixtures were incubated in 96-well microtiter plates at room temperature for 30 min. After the reaction, reduction of the radical was then measured at 517 nm. Percent inhibition by sample treatment was determined by comparison with controls containing no test samples. IC50 values denote the concentration of sample, required to scavenge 50% DPPH free radicals (Ibid.).

Row | SMILES | IC50 (μg/mL), concentration of sample required to scavenge 50% DPPH free radicals | IC50
1 | COc1c(C(C)C)cc2c(c1O)C1(CO)CCCC(C)(C)C1CC2 (centres unmarked) [Compound 4, 11,20-dihydroxy-12-methoxy-abiet-8,11,13-triene] | 27.7 µg/mL | 83.4 µM
2 | CC(C)c1cc2c(c(O)c1O)[C@@]1(C(=O)O)CCCC(C)(C)[C@@H]1CC2 [Compound 1, carnosic acid] | 18.7 µg/mL | 53.3 µM
3 | CC(C)c1cc2c(c(O)c1O)[C@@]13CCCC(C)(C)[C@@H]1C[C@@H]2OC3=O [Compound 5, 11,12-dihydroxy-7-10-(epoxymethano)-abiet-8,11,13-triene-20-one] | 37.9 µg/mL | 114 µM

The remaining lines, values ahead:

Row | IC50 (μg/mL), concentration of sample required to scavenge 50% DPPH free radicals | IC50 | SMILES
4 | 4.8 µg/mL | 37.8 µM | Oc1cccc(O)c1O [Pyrogallol]
5 | 11.8 µg/mL | 66.8 µM | O=C1O[C@H]([C@@H](O)CO)C(O)=C1O [Ascorbic acid]
6 | 9.8 µg/mL | 46.1 µM | CCCOC(=O)c1cc(O)c(O)c(O)c1 [Propyl gallate]
7 | 23.9 µg/mL | 66 µM | CC1(C)CCCC23C(=O)OC(CC12)c1cc(C(CO)CO)c(O)c(O)c13 (centres unmarked) [Compound 6, 11,12,16,17-tetrahydroxy-7-10-(epoxymethano)-abiet-8,11,13-triene-20-one]
